Like-named read-outs stand apart in the source and are kept apart here. Marks after values point to notes of the source that are not given here.
Key:
[1] = test system: cervical secretion; conditions: clinical study; cited from earlier work
[2] = test system: fertility of female rats; assay: Rat fertility test: single application in pro oestrus, pairing, number of implantation sites; format: in vivo, Han Wistar rats
Protocol: In the experiments below, female Han Wistar rats with a weight of 200-270 g were used. The animals were kept in Macrolon cages in rooms with controlled lighting (12 hours darkness: 12 hours lightness), fed with a standard diet and watered with water ad libitum. Levonorgestrel was dissolved in benzyl benzoate/castor oil (1+4 v/v) and the daily dose was applied in a volume of 1 ml/kg of body weight s.c. The COX inhibitors were suspended in a carrier liquid (85 mg Myrj®53 polyoxyl(50)stearate; CAS No. 9004-99-3) in 100 ml of 0.9% w/v NaCl solution) and the dose corresponding to the treatment group was administered orally in a volume of 2 ml/kg of body weight. Two cycles were observed using vaginal smears prior to the start of the experiment. […] Assignment to the treatment groups was random. The animals were treated once with the test substances either on their own or in combination in pro oestrus, the day in the cycle on which in the evening the LH peaked. On the evening of […] the female animals were paired with male rats. Successful pairing was tested the next morning by means of a vaginal sperm detection in the vaginal smear. The influence on the fertility was ascertained 9-15 days after the pairing via the number of implantation sites of the animals. The group size was n=6 animals per group.

[3] = test system: prostaglandin E2 (PEG2) synthesis in the ovaries
[4] = test system: fertility in humans; conditions: taken over a prolonged period for treating Bechterew's disease; cited from earlier work
[5] = test system: ovulation of women; assay: Clinical phase IIa study: oral single dose of piroxicam after start of the LH increase, ovulation inhibition or delay; format: in vivo; conditions: for Time from LH increase to ovulation in the treatment cycle, average value / Time from LH increase to ovulation in the treatment cycle, median / Time from LH increase to ovulation in the treatment cycle, range: N = 16; for % of women who exhibited an at least plus 24 hour delay in ovulation / Number of women who exhibited an at least plus 24 hour delay in ovulation compared to the median time between LH increase and ovulation in the untreated previous cycle: N = 16, final evaluation set
Protocol: In a clinical phase IIa study (monocentric, double blind, placebo controlled, randomized, parallel groups), piroxicam was administered to women of a fertile age in the dosages 20, 40 and 80 mg as an oral single dose. Overall, 72 women were treated, of which 18 women were given 20 mg, 17 women were given 40 mg, 20 women were given 80 mg of piroxicam and 17 women were given a placebo preparation. It was the aim of the study to investigate whether the oral single administration of piroxicam after the start of the LH increase has an effect on ovulation compared to the placebo in healthy young women. An ovulation inhibition or delay by at least plus 24 hours longer than the median duration between LH increase and ovulation in the untreated previous cycle of the study population was evaluated as the effect. For this purpose, transvaginal ultrasound investigations and hormone level measurements were carried out. Only women (n=64) without serious protocol deviations which could have influenced the study aim were included in the final study evaluation.
Adapted Kaplan-Meier curve for depicting the ovulation delay following administration of piroxicam compared to the administration of a placebo preparation. The time after the LH increase is plotted on the X axis in days. […] The individual curves represent the individual treatment groups: placebo group (solid line); 20 mg of piroxicam (dotted line consisting of short strokes), 40 mg of piroxicam (dotted line consisting of long strokes) and 80 mg of piroxicam (dotted line consisting of alternating long and short strokes).

[6] = Table 2.3, treatment at 17:00, LNG 0.5 mg/animal (n = 5), diclofenac 4 mg/animal
[7] = Table 2.4, treatment at 17:00, LNG 0.5 mg/animal, ibuprofen 12.5 mg/animal
[8] = Table 2.4, treatment at 17:00, ibuprofen 25 mg/animal alone or with LNG 0.5 mg/animal
[9] = Table 2.2, treatment at 17:00, LNG 0.5 mg/animal, indomethacin 1 mg/animal, combination n = 5
[10] = Table 2.1, treatment at 7:00, LNG 0.5 mg/animal s.c., piroxicam 2 mg/animal oral, single application
[11] = Table 2.1, treatment at 13:00, LNG 0.5 mg/animal s.c., piroxicam 2 mg/animal oral, single application
[12] = Table 2.5, LNG 0.5 mg/animal at 17:00 (n = 5), naproxen 10 mg/animal at 20:00 (n = 4), combination 17:00
[13] = Table 2.5, naproxen 2 × 5 mg/animal at 17:00 and 20:00, alone or with LNG 0.5 mg/animal

For `O=C(O)Cc1ccccc1Nc1c(Cl)cccc1Cl` [Diclofenac, diclofenac], the “Effect on cervical secretion (in words)” value [1] is given as “reduction in cervical secretion”, the “Implantations per animal (average value ± SD)” value [2, 6] is given as 3.7 ± 3.6 and the “Sum of the implantation sites of 6 animals” value [2, 6] is given as 22.
In the case of `CC(C)Cc1ccc(C(C)C(=O)O)cc1` (stereo not drawn) [Ibuprofen, ibuprofen], the “Implantations per animal (average value ± SD)” value [2, 7] was 10.8 ± 3.2, the “Sum of the implantation sites of 6 animals” value [2, 7] was 65 and the “Implantations per animal (average value ± SD)” value [2, 8] was 11.3 ± 2.6. The “Sum of the implantation sites of 6 animals” value [2, 8] was 68.
In the case of `COc1ccc2c(c1)c(CC(=O)O)c(C)n2C(=O)c1ccc(Cl)cc1` [Indomethacin, indomethacin], the “Implantations per animal (average value ± SD)” value [2, 9] was 4.8 ± 4.1 and the “Sum of the implantation sites of 6 animals” value [2, 9] was 29.
In the case of `C#C[C@]1(O)CC[C@H]2[C@@H]3CCC4=CC(=O)CC[C@@H]4[C@H]3CC[C@@]21CC` [LNG, levonorgestrel], the “Implantations per animal (average value ± SD)” value [2, 10] was 8.3 ± 4.3, the “Sum of the implantation site, of 6 animals” value [2, 10] was 50 and the “Implantations per animal (average value ± SD)” value [2, 11] was 5.3 ± 3.1. The “Sum of the implantation site, of 6 animals” value [2, 11] was 32, the “Implantations per animal (average value ± SD)” value [2, 9] was 7.5 ± 4.0 and the “Sum of the implantation sites of 6 animals” value [2, 9] was 45. The “Implantations per animal (average value ± SD)” value [2, 6] was 6.8 ± 5.9, the “Sum of the implantation sites of 6 animals” value [2, 6] was 34* and the “Implantations per animal (average value ± SD)” value [2, 7] was 10.5 ± 4.5. The “Sum of the implantation sites of 6 animals” value [2, 7] was 63, the “Implantations per animal (average value ± SD)” value [2, 12] was 7.8 ± 5.9 and the “Sum of the implantation sites of 6 animals” value [2, 12] was 39*.
In the case of `COc1ccc2cc([C@H](C)C(=O)O)ccc2c1` [Naproxen, naproxen], the “Prostaglandin E2 in the ovaries, average value” (from here on “Prostaglandin E2 in the ovaries”) ([3]; sample at 18:00, 2 hours after oral 20 mg/kg naproxen (around 16:00)) was 12.9 pg/500 μg tissue, the “Prostaglandin E2 in the ovaries” value ([3]; sample at 20:00, 4 hours after oral 20 mg/kg naproxen (around 16:00)) was 32.1 pg/500 μg tissue and the “Prostaglandin E2 in the ovaries” value ([3]; sample at 22:00, 6 hours after oral 20 mg/kg naproxen (around 16:00)) was 72.4 pg/500 μg tissue. The “Prostaglandin E2 (PEG2) synthesis in the ovaries (in words)” value ([3]; under the action of naproxen) was “reduced”, the “Implantations per animal (average value ± SD)” value [2, 12] was 5.8 ± 4.4 and the “Sum of the implantation sites of 6 animals” value [2, 12] was 23**. The “Implantations per animal (average value ± SD)” value [2, 13] was 7.3 ± 3.6, the “Sum of the implantation sites of 6 animals” value [2, 13] was 44 and the “Antifertile effect in the rat fertility test (in words)” value ([2]; single application, doses as in Tables 2.1-2.5) was “reduction in fertility”. The “Effect on fertility in humans (in words)” value [4] was “antifertile effect”.
In the case of `CN1C(C(=O)Nc2ccccn2)=C(O)c2ccccc2S1(=O)=O` [Piroxicam, piroxicam], the “Implantations per animal (average value ± SD)” value [2, 10] was 9.5 ± 4.8, the “Sum of the implantation site, of 6 animals” value [2, 10] was 57 and the “Implantations per animal (average value ± SD)” value [2, 11] was 10.0 ± 5.3. For the same compound, the “Sum of the implantation site, of 6 animals” value [2, 11] was 60, the “Extension of the time (median) between LH increase and ovulation in the treatment cycle compared to the previous cycle” value ([5]; 20 mg oral single dose) was 17 h and the “Time from LH increase to ovulation in the treatment cycle, average value” (from here on “Time from LH increase … average value”) ([5]; 20 mg oral single dose) was 133 h. The “Time from LH increase to ovulation in the treatment cycle, median” value (“Time from LH increase to ovulation … median” below) ([5]; 20 mg oral single dose) was 65 h, the “Time from LH increase to ovulation in the treatment cycle, range” value (shortened to “Time from LH increase to ovulation … range”) ([5]; 20 mg oral single dose) was 38 to 416 h and the “% of women who exhibited an at least plus 24 hour delay in ovulation” value ([5]; 20 mg oral single dose) was 50.0%. For the same compound, the “Number of women who exhibited an at least plus 24 hour delay in ovulation compared to the median time between LH increase and ovulation in the untreated previous cycle” value ([5]; 20 mg oral single dose) was 8, the “Extension of the time (median) between LH increase and ovulation in the treatment cycle compared to the previous cycle” value ([5]; 40 mg oral single dose) was 15 h and the “Time from LH increase … average value” ([5]; 40 mg oral single dose) was 121 h. For the same compound, the “Time from LH increase to ovulation … median” value ([5]; 40 mg oral single dose) was 63 h, the “Time from LH increase to ovulation … range” value ([5]; 40 mg oral single dose) was 37 to 384 h and the “% of women who exhibited an at least plus 24 hour delay in ovulation” value ([5]; 40 mg oral single dose) was 43.8%. The “Number of women who exhibited an at least plus 24 hour delay in ovulation compared to the median time between LH increase and ovulation in the untreated previous cycle” value ([5]; 40 mg oral single dose) was 7, the “Extension of the time (median) between LH increase and ovulation in the treatment cycle compared to the previous cycle” value ([5]; 80 mg oral single dose) was 228 h and the “Time from LH increase … average value” ([5]; 80 mg oral single dose) was 219 h. For the same compound, the “Time from LH increase to ovulation … median” value ([5]; 80 mg oral single dose) was 276 h, the “Time from LH increase to ovulation … range” value ([5]; 80 mg oral single dose) was 48 to 386 h and the “% of women who exhibited an at least plus 24 hour delay in ovulation” value ([5]; 80 mg oral single dose) was 68.8%. For the same compound, the “Number of women who exhibited an at least plus 24 hour delay in ovulation compared to the median time between LH increase and ovulation in the untreated previous cycle” value ([5]; 80 mg oral single dose) was 11 and the “Effect on ovulation compared to placebo (in words)” value ([5]; all three dose groups (20, 40, 80 mg)) was “more marked effect on ovulation than in the placebo group”.

— patent US9579330B2, “Use and application regimen of a pharmaceutical composition containing levonorgestrel and a COX inhibitor for on-demand contraception” (priority 2012, dated 2017)
